Results taken from patent publication US20130116227A1, “BIARYL AMIDE DERIVATIVE OR PHARMACEUTICALLY ACCEPTABLE SALT THEREOF” (DAINIPPON SUMITOMO PHARMA CO., LTD., priority 2010, published 2013).

target: T1, aldosterone receptor (Rattus norvegicus, UniProt P22199); test: Binding inhibition test for aldosterone receptor ([3H]aldosterone, rat renal soluble fraction); conditions: [3H]aldosterone 2 nM, rat renal soluble fraction, in the presence of 2 μM RU-486, 4° C. about 18 hours; read-out: MR IC50
T1 construct: centrifuged at 105,000 g for 30 minutes, and then a supernatant was collected as a renal soluble fraction; from tissue; host or cells: rat kidney (adrenalectomized rat), 105,000 g supernatant (cytosol)
T1 sequence (P22199 1-981): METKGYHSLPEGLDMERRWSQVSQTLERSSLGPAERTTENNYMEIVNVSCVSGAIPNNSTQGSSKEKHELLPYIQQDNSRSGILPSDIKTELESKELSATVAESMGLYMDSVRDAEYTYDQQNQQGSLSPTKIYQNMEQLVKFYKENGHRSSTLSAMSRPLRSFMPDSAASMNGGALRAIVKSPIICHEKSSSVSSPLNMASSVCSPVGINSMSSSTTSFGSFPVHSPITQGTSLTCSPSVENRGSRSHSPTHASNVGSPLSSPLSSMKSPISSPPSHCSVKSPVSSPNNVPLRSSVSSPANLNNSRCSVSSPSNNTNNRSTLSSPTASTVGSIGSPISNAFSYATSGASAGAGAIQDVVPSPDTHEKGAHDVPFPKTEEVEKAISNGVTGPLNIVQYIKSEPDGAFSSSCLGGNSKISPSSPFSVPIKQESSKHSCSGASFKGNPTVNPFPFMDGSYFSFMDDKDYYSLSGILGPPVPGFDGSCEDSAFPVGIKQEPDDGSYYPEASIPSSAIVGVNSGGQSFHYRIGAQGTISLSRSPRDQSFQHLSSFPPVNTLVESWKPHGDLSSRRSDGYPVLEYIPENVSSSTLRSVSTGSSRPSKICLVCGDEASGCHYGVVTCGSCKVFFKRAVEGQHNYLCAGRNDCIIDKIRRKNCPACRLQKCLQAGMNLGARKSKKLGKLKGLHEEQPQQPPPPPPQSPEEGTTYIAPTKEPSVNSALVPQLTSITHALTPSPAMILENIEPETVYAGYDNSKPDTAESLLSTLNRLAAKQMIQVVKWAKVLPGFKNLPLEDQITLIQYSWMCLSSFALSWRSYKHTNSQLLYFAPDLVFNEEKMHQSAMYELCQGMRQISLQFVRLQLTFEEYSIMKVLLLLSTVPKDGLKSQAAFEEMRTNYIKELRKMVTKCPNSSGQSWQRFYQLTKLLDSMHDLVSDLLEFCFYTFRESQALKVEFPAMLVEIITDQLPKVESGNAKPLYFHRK
In short: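 Renal soluble fraction (105,000 g supernatant, pH 7.4 Tris/sucrose/molybdate/DTT) from adrenalectomized rats, incubated with 2 nM [3H]aldosterone plus 2 μM RU-486, 4 °C, ~18 h. Bound ligand separated by dextran-coated charcoal, counted by scintillation; nonspecific binding with 2 μM aldosterone. Percent binding inhibition over 0.1–10000 nM test compound.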

| Compound | IC50 |
| --- | --- |
| COc1cc(NC(=O)c2ccc(-c3cccnc3-c3cccnc3)c(C)c2)ccc1S(N)(=O)=O [Example 531] | < 10 µM |
| COc1cc(NC(=O)c2ccc(-c3cccnc3C3CC3)c(C)c2)ccc1S(N)(=O)=O [Example 533] | 1.6 µM |
| COc1cc(NC(=O)c2ccc(-c3cccc4cccnc34)c(C)c2)ccc1S(N)(=O)=O [Example 537] | 5.4 µM |
| COCc1cc(NC(=O)c2ccc(S(N)(=O)=O)c(OC)c2)ccc1-c1cccnc1C1CC1 [Example 545] | < 10 µM |
| CCOCc1cc(C(=O)Nc2ccc(S(N)(=O)=O)c(OC)c2)ccc1-c1cccnc1OCC [Example 547] | < 10 µM |
| COc1cc(C(=O)Nc2ccc(-c3ccccc3C(F)(F)F)c(Cc3nccn3C)c2)ccc1S(N)(=O)=O [Example 550] | 0.62 µM |
| COc1cc(NC(=O)c2ccc(-c3ccccc3OC(F)(F)F)c(N)c2)ccc1S(N)(=O)=O [Example 560] | 0.24 µM |
| CCN(CC)c1cc(C(=O)Nc2ccc(S(N)(=O)=O)c(OC)c2)ccc1-c1ccccc1OC(F)(F)F [Example 561] | 0.1 µM |
| COc1cc(NC(=O)c2ccc(-c3ccccc3OC(F)(F)F)c(NCc3nccn3C)c2)ccc1S(N)(=O)=O [Example 577] | < 10 µM |
| COC(=O)Nc1cc(C(=O)Nc2ccc(S(N)(=O)=O)c(OC)c2)ccc1-c1ccccc1OC(F)(F)F [Example 578] | < 10 µM |
| CCOC(=O)Nc1cc(C(=O)Nc2ccc(S(N)(=O)=O)c(OC)c2)ccc1-c1ccccc1CC [Example 581] | < 10 µM |
| COc1cc(NC(=O)c2ccc(-c3ccccc3OC3CC3)c(CO)c2)ccc1S(N)(=O)=O [Example 590] | < 10 µM |
| COc1ccc(-c2ccc(C(=O)Nc3ccc(S(N)(=O)=O)c(OC)c3)cc2CNCC(F)F)c(C)c1 [Example 592] | < 10 µM |
| COc1cc(F)ccc1-c1ccc(C(=O)Nc2ccc(S(N)(=O)=O)c(OC)c2)cc1CNCC(F)F [Example 593] | < 10 µM |
| COc1cccc(NC(=O)c2ccc(-c3ccccc3)c(CN3CCCCC3)c2)c1 [compound 1] | > 10 µM |
| NS(=O)(=O)c1cccc(NC(=O)c2ccc(-c3ccccc3)c(CN3CCCCC3)c2)c1 [compound 2] | > 10 µM |

same assay, conditions: rat renal soluble fraction, [3H] aldosterone 2 nM, in the presence of 2 μM RU-486

| Compound | binding affinities for aldosterone receptor |
| --- | --- |
| COc1cccc(NC(=O)c2ccc(-c3ccccc3)c(CN3CCCCC3)c2)c1 [compound 1, reference compound] | very few binding affinities |
| NS(=O)(=O)c1cccc(NC(=O)c2ccc(-c3ccccc3)c(CN3CCCCC3)c2)c1 [compound 2, reference compound] | very few binding affinities |

same assay, conditions: read-out: Inhibition rates (%) in 100 μM

| Compound | inhibition at 100 µM |
| --- | --- |
| COc1cccc(NC(=O)c2ccc(-c3ccccc3)c(CN3CCCCC3)c2)c1 [compound 1] | 7% |
| NS(=O)(=O)c1cccc(NC(=O)c2ccc(-c3ccccc3)c(CN3CCCCC3)c2)c1 [compound 2] | 11% |

system: normal rat; test: Antagonism (in vivo antagonist activity) against reduction of Na/K ratios in DOCA induced urine of normal rat; conditions: oral administration 30 minutes before DOCA 0.3 mg/kg s.c., urine collected for 8 hours
Protocol: Antagonism (In Vivo Antagonist Activity) Against Reduction of Na/K Ratios in Deoxycorticosterone Acetate (DOCA) Induced Urine of Normal Rat
A rat was encaged in a metabolism cage and was collected urine for 8 hours. When a test article was orally administered, it was administered in 5 ml/kg of dosage solution amounts using 0.5% methylcellulose as a solvent. DOCA was dissolved in corn oil in 0.3 mg/ml, and was subcutaneously administered in 1 ml/kg (0.3 mg/kg). Administration timing for a test article was 30 minutes before DOCA administration. 20 ml/kg of Solution amounts of saline was orally administered when administering DOCA in order to stabilize urine amounts and to secure enough amounts. Collected urine was analyzed its amounts, and then electrolyte (sodium: Na^+ and potassium: K^+) concentrations in urine were analyzed by an automatic biochemical analyzer (manufactured by JEOL Ltd., JCA-BM1650) to calculate ratios of Na^+ and K^+.

| Compound | suppression of reduction of Na/K ratios in DOCA-induced urine |
| --- | --- |
| COC(=O)[C@@H]1CC2=CC(=O)CC[C@]2(C)[C@@]23O[C@@H]2C[C@@]2(C)[C@@H](CC[C@@]24CCC(=O)O4)[C@H]13 [eplerenone] | suppressed reduction of Na/K ratios in DOCA-induced urine in a dose-dependent manner |
